Consider eleven compounds from patent US20260317319A1, “NOVEL ERGOLINES AND METHODS OF TREATING MOOD DISORDERS” (Gilgamesh Pharma Inc., priority 2023, published 2026).

Read-outs that look alike come from different tables or passages of the source.

In data set [1] the target is T1, 5-HT1B receptor (Homo sapiens, UniProt P28222).
T1 construct: expressed in transfected cells
Briefly: cAMP accumulation functional assay at 5-HT1B. The class given is cell-based. To be noted: agonist, cAMP accumulation, max dose; read-out: 5-HT1B % Act @ Max Dose. The procedure:
Functional Assay at 5-HT1B. Agonist activity at 5-HT1B was determined using a CAMP accumulation protocol at WuXi AppTec (Hong Kong) Limited according to their standard protocols. Briefly, stably transfected cells were plated in an OptiPlate-384 well plate, incubated at RT for 60 mins, and cAMP standard solution (800 nM, 10 μL) was added to the blank well. Then, 10 μL detection reagent was added to each well, the plate incubated for 60 mins at RT, and the plate read using En Vision.

The target in data set [2] is T2, 5-HT2B receptor (Homo sapiens, UniProt P41595).
T2 construct: expressed in transfected cells; host or cells: HEK293, stably transfected
Briefly: cell-based. The class given is cell-based. The settings on record: Ca2+ flux; for Emax: HEK293, agonist, HEK293, max dose, read-out: 5-HT2B % Act @ Max Dose; for EC50: agonist, HEK293. The procedure: (§1) Functional Assays at 5-HT2A, 5-HT2B, and 5-HT1A. Agonist activity at 5-HT2A, 5-HT2B, 5HT2C and 5-HT1A receptors was determined using a FLIPR Ca^2+ flux assay at WuXi AppTec (Hong Kong) Limited according to their standard protocols. Briefly, stably transfected cells expressing the receptor of interest and Gα15 in the case of 5-HT1A (HEK293 for 5-HT2A and 5-HT2B; CHO cells for 5-HT1A) were grown and plated in a 384 well plate and incubated at 37° C. and 5% CO2 overnight. A solution of 250 mM probenecid in 1 mL FLIPR assay buffer was prepared fresh. This was combined with a fluorescent dye (Fluo-4 Direct™) to make a final assay concentration of 2.5 mM. […] The fluorescent dye was then added to the assay plate along with assay buffer to a final volume of 40 μL. The cell plate was incubated for 50 min at 37° C. and 5% CO2 and placed into the FLIPR Tetra along with the compound plate. 10 μL of references and compounds were then transferred from the compound plate into the cell plate and the fluorescent signal was read.

In data set [3] the target is T3, 5-HT2A receptor (Homo sapiens, UniProt P28223). Briefly: cell-based. Type of data set: cell-based. On the set-up: expressed in transfected cells; host or cells: HEK293, stably transfected. To be noted: for Emax: HEK293, agonist, HEK293, max dose, read-out: 5-HT2A % Act @ Max Dose; for Emax / EC50: Ca2+ flux; for EC50: agonist, HEK293. The procedure: as §1
Data set [4] deals with T4, 5-HT1A receptor (Homo sapiens, UniProt P08908).
T4 construct: expressed in transfected cells; host or cells: CHO cells, stably transfected
T4 sequence (P08908 1-422): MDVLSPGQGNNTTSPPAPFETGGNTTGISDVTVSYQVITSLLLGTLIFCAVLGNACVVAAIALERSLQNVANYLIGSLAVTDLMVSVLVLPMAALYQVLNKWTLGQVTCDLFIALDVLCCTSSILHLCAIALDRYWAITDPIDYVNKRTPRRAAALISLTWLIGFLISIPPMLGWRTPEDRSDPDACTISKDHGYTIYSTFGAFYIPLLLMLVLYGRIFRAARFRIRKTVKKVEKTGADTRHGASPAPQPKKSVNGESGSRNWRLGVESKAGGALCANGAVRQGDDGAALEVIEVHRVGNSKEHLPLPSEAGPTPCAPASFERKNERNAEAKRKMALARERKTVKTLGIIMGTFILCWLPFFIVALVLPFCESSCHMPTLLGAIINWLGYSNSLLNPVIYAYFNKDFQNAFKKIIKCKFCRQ
Briefly: cell-based. The settings on record: agonist, Ca2+ flux; for Emax: CHO, CHO cells with Gα15, max dose, read-out: 5-HT1A % Act @ Max Dose; for EC50: CHO cells with Gα15. The procedure: as §1

Data set [5] in a line: in vitro. Type of data set: in vitro ADME, rat. To be noted: rat, microsomes, RLM (male Sprague-Dawley) 0.50 mg/mL, NADPH 1 mM, 1 μM compound, pH 7.4, 37° C., 60 min; for microsomal CLint: read-out: Intrinsic clearance (Clint); for half-life: read-out: half-life (t1/2). The source says: RLM Stability Pooled RLM from male Sprague-Dawley rats (Xenotech R1000) were used.
The target in data set [6] is T3, 5-HT2A receptor. Briefly: biochemical. Type of data set: binding. More on the design: expressed in transfected cells; host or cells: HEK293, stably transfected. The settings on record: [3H]ketanserin 1 nM; HEK293 stable cell line; 1 h, 25 °C. In short, it runs like this:
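Values reflect [^3H]ketanserin binding competition. Assay conditions were adapted from the literature.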

Data set [7] is described as follows: in vitro. Type of data set: in vitro ADME, human. The settings on record: human, microsomes, HLM 0.50 mg/mL, NADPH 1 mM, 1 μM compound, pH 7.4, 37° C., 60 min; for microsomal CLint: read-out: Intrinsic clearance (Clint); for half-life: read-out: half-life (t1/2).
Data set [8] can be described thus: in vitro. The class given is in vitro ADME, mouse. To be noted: mouse, microsomes, MLM (male CD-1) 0.50 mg/mL, NADPH 1 mM, 1 μM compound, pH 7.4, 37° C., 60 min; for microsomal CLint: read-out: Intrinsic clearance (Clint); for half-life: read-out: half-life (t1/2). An excerpt:
MLM Stability Pooled MLM from male CD-1 mice (BIOIVT M00501) were used.

T1 sequence (P28222 whole entry): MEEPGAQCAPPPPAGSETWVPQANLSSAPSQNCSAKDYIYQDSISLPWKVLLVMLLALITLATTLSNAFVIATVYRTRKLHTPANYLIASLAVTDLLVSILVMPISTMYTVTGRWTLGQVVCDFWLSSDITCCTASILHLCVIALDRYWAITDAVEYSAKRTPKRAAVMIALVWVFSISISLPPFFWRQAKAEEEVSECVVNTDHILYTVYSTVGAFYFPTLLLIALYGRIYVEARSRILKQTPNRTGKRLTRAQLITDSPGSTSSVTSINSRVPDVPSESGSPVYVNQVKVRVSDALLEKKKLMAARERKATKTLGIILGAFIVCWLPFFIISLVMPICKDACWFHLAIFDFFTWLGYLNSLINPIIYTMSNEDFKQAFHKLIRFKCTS
T2 sequence (P41595 whole entry): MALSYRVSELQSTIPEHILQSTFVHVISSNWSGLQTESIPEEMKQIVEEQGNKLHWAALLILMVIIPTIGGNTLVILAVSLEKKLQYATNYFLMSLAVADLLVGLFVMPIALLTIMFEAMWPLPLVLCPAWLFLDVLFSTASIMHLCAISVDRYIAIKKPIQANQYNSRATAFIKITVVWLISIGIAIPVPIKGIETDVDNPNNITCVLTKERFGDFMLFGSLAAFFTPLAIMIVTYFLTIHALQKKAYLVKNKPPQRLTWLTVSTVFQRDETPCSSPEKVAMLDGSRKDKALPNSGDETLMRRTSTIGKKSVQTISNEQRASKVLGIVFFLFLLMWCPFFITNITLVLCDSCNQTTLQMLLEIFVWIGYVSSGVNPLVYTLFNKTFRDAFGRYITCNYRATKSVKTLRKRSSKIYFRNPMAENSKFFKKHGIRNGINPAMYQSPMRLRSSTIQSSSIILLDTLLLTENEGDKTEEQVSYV
T3 sequence (P28223 whole entry): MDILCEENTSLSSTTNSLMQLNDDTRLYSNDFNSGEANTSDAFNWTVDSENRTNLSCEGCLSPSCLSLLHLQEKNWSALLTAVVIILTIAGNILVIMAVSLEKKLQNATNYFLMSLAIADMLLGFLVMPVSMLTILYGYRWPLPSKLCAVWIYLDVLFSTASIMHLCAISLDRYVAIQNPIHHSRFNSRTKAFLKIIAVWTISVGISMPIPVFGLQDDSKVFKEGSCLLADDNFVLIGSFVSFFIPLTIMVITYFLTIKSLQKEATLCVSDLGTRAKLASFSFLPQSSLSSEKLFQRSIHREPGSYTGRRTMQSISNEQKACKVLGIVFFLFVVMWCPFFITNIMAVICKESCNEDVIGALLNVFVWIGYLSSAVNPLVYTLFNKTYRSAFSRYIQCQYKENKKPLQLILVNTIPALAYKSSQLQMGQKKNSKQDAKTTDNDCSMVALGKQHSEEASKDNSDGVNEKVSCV

On to `CC[C@@H](C)NC(=O)[C@@H]1C=C2c3cccc4[nH]cc(c34)C[C@H]2N(CCC(F)(F)F)C1` [Compound 40, (6aR,9R)—N—((R)-sec-butyl)-7-(3,3,3-trifluoropropyl)-4,6,6a,7,8,9-hexahydroindolo[4,3-fg]quinoline-9-carboxamide], for which the Emax in data set [1] came to 62.1%; in data set [2] it was 8.46%; in data set [3], 45.1%; in data set [4], 22.3%. In data set [3] (functional agonist activity), the “selectivity for 5-HT2A over the other serotonin receptors tested” value was “highly selective for 5-HT2A”.

`CCN(CC)C(=O)[C@@H]1C=C2c3cccc4[nH]c(Br)c(c34)C[C@H]2N(CCCF)C1` [Compound 41, (6aR,9R)-5-bromo-N,N-diethyl-7-(3-fluoropropyl)-4,6,6a,7,8,9-hexahydroindolo[4,3-fg]quinoline-9-carboxamide]: the Emax in data set [1] was 61.5%; in data set [2], 84.5%; in data set [3], 75.4%; in data set [4] it was 39.8%.

For the compound `CCCN1C[C@H](C(=O)N(CC)CC)C=C2c3cccc4[nH]c(Br)c(c34)C[C@H]21` [Compound 9, (6aR,9R)-5-bromo-N,N-diethyl-7-propyl-4,6,6a,7,8,9-hexahydroindolo[4,3-fg]quinoline-9-carboxamide], the Emax in data set [1] was 81.5%; in data set [2], 89.6%; in data set [3], 75.8%; in data set [4], 101%.

On to `C[C@H]1C[C@H](C)N1C(=O)[C@@H]1C=C2c3cccc4[nH]cc(c34)C[C@H]2N(CCCF)C1` [Compound 26, ((2S,4S)-2,4-dimethylazetidin-1-yl)((6aR,9R)-7-(3-fluoropropyl)-4,6,6a,7,8,9-hexahydroindolo[4,3-fg]quinolin-9-yl)methanone], for which the Emax in data set [1] amounted to 77.2%; in data set [2] it was 101%; in data set [3], 83.2%; in data set [4], 97.9%.

Turning to `CCCN1C[C@H](C(=O)N[C@H](C)CC)C=C2c3cccc4[nH]c(Br)c(c34)C[C@H]21` [Compound 46, (6aR,9R)-5-bromo-N—((R)-sec-butyl)-7-propyl-4,6,6a,7,8,9-hexahydroindolo[4,3-fg]quinoline-9-carboxamide], the Emax in data set [1] was 78.8%; in data set [2], 79%; in data set [3] it was 69.5%; in data set [4], 69.5%.

For `CCCN1C[C@H](C(=O)N2[C@@H](C)C[C@@H]2C)C=C2c3cccc4[nH]c(Br)c(c34)C[C@H]21` [Compound 47, ((6aR,9R)-5-bromo-7-propyl-4,6,6a,7,8,9-hexahydroindolo[4,3-fg]quinolin-9-yl)((2S,4S)-2,4-dimethylazetidin-1-yl)methanone], the Emax in data set [1] was 76.2%; in data set [2] it was 87%; in data set [3] it was 57%; in data set [4], 62.1%.

In the case of `CN1C[C@H](C(=O)N(CCF)CCF)C=C2c3cccc4[nH]cc(c34)C[C@H]21` [Compound 38, (6aR,9R)—N,N-bis(2-fluoroethyl)-7-methyl-4,6,6a,7,8,9-hexahydroindolo[4,3-fg]quinoline-9-carboxamide], the Emax in data set [1] was found to be 94.7%; in data set [2], 28.1%; in data set [3], 93.4%; in data set [4], 90.5%.

Consider `CCCN(CC)C(=O)[C@@H]1C=C2c3cccc4[nH]cc(c34)C[C@H]2N(Cc2ccccc2)C1` [Compound 86, (6aR,9R)-7-benzyl-N-ethyl-N-propyl-4,6,6a,7,8,9-hexahydroindolo[4,3-fg]quinoline-9-carboxamide], for which the results for the microsomal CLint in data set [5], in data set [7] and in data set [8] were 117 µL/min/mg, 128 µL/min/mg and 380 µL/min/mg, respectively. The half-life in data set [5] amounted to 11.9 min; in data set [7], 10.9 min; in data set [8], 3.6 min. Besides, the Emax in data set [2] came out at 7.82%; in data set [3] it was 67%; in data set [4], 49.1%. The EC50 in data set [2] amounted to 1280 nM; in data set [3] it was 933 nM; in data set [4], 15.5 µM. For the same compound, affinity in data set [6] was put at a Ki of 1.6 nM.

On to `C[C@H]1C[C@H](C)N1C(=O)[C@@H]1C=C2c3cccc4[nH]cc(c34)C[C@H]2N(Cc2ccccc2)C1` [Compound 87, ((6aR,9R)-7-benzyl-4,6,6a,7,8,9-hexahydroindolo[4,3-fg]quinolin-9-yl)((2S,4S)-2,4-dimethylazetidin-1-yl)methanone], for which the microsomal CLint in data set [5] was determined as 60.1 µL/min/mg; in data set [7], 97.2 µL/min/mg; in data set [8], 681 µL/min/mg. For the same compound, the half-life was 23 min in data set [5], 14.3 min in data set [7] and 2 min in data set [8]. The figures for the Emax in data set [2], in data set [3] and in data set [4] were 10%, 61.2% and 58.2%, respectively. Besides, the half-maximal effective concentration (EC50) in data set [2] was more than 3000 nM; in data set [3], 669 nM; in data set [4], 54.1 µM. The compound further displayed an inhibition constant Ki in data set [6] of 2.1 nM.

In the case of `CCN(CC)C(=O)[C@@H]1C=C2c3cccc4[nH]cc(c34)C[C@H]2N(CCF)C1` [Compound 39, (6aR,9R)—N,N-diethyl-7-(2-fluoroethyl)-4,6,6a,7,8,9-hexahydroindolo[4,3-fg]quinoline-9-carboxamide], the Emax in data set [1] is 99%; in data set [2], 85.5%; in data set [3], 95.5%; in data set [4], 91.2%.

With `CC[C@@H](C)NC(=O)[C@@H]1C=C2c3cccc4[nH]cc(c34)C[C@H]2N(Cc2cccc(OC)c2)C1` [Compound 95, (6aR,9R)—N—((R)-sec-butyl)-7-(3-methoxybenzyl)-4,6,6a,7,8,9-hexahydroindolo[4,3-fg]quinoline-9-carboxamide], the results for the microsomal CLint in data set [5], in data set [7] and in data set [8] were 1600 µL/min/mg, 685 µL/min/mg and 2020 µL/min/mg, respectively. In addition, the half-life in data set [5] turned out to be 0.9 min; in data set [7] it was 2 min; in data set [8] it was 0.7 min. For the same compound, the Emax in data set [2] came out at 0.13%; in data set [3], 63.8%; in data set [4], 63.2%. For the same compound, the concentration giving a half-maximal response (EC50) in data set [2] was more than 10000 nM; in data set [3], 642 nM; in data set [4], 42.9 µM. In data set [6], this compound yielded a Ki of 15.3 nM.

A word on the EC50: it is the concentration at which the effect is half-maximal. Lower therefore signals an effect from little substance. For orientation: Ki means a measure of affinity in units of concentration, obtained from inhibition or displacement. Low readings indicate tighter binding, high ones weaker binding.
